Tests used:
[1] = tested on: C57BL/KsJ-db/db mice; assay: Blood sugar and triglyceride lowering in db/db mice; format: in vivo, mouse
Text: Mutation in colonies of laboratory animals and different sensitivities to dietary regimens have made the development of animal models with non-insulin dependent diabetes and hyperlipidemia associated with obesity and insulin resistance possible. Genetic models such as db/db and ob/ob (Diabetes, (1982) 31 (1): 1-6) mice and zucker fa/fa rates have been developed by the various laboratories for understanding the pathophysiology of disease and testing the efficacy of new antidiabetic compounds (Diabetes, (1983) 32: 830-838; Annu. Rep. Sankyo Res. Lab. (1994). 46: 1-57). The homozygous animals, C57 BL/KsJ-db/db mice developed by Jackson Laboratory, U.S., are obese, hyperglycemic, hyperinsulinemic and insulin resistant (J. Clin. Invest., (1990) 85: 962-967), whereas heterozygous are lean and normoglycemic. In db/db model, mouse progressively develops insulinopenia with age, a feature commonly observed in late stages of human type II diabetes when blood sugar levels are insufficiently controlled. The state of pancreas and its course vary according to the models. Since this model resembles that of type II diabetes mellitus, the compounds of the present invention were tested for blood sugar and triglycerides lowering activities.
Male C57BL/KsJ-db/db mice of 8 to 14 weeks age, having body weight range of 35 to 60 grams, bred at Dr. Reddy's Research Foundation (DRF) animal house, were used in the experiment. The mice were provided with standard feed (National Institute of Nutrition (NIN), Hyderabad, India) and acidified water, ad libitum. The animals having more than 350 mg/dl blood sugar were used for testing. The number of animals in each group was 4.
Test compounds were suspended on 0.25% carboxymethyl cellulose and administered to test group at a dose of 0.1 mg to 30 mg/kg through oral gavage daily for 6 days. The control group received vehicle (dose 10 mL/kg). On 6 th day the blood samples were collected one hour after administration of test compounds/vehicle for assessing the biological activity.
The random blood sugar and triglyceride levels were measured by collecting blood ([…]) through orbital sinus, using heparinised capillary in tubes containing EDTA which was centrifuged to obtain plasma. The plasma glucose and triglyceride levels were measured spectrometrically, by glucose oxidase and glycerol-3-PO4 oxidase/peroxidase enzyme (Dr. Reddy's Lab. Diagnostic Division Kits, Hyderabad, India) methods respectively.
The blood sugar and triglycerides lowering activities of the test compound was calculated according to the formula.
(§1) 1. Percent reduction in Blood sugar/triglycerides/total cholesterol were calculated according to the formula: [formula]

[2] = tested on: Swiss albino mice; assay: Plasma triglyceride lowering activity in Swiss albino mice and Guinea pigs; format: in vivo, mouse; settings: dose 1 mg (mg/kg), oral, 6 days; table follows the Swiss albino mice / Guinea pig section
Method: Male Swiss albino mice (SAM) and male Guinea pigs were obtained from NIN and housed in DRF animal house. All these animals were maintained under 12 hour light and dark cycle at 25±1° C. Animals were given standard laboratory chow (NIN, Hyderabad, India) and water, ad libitum, SAM of 20-25 g body weight range and Guinea pigs of 500-700 g body weight range were used (Oliver, P., Plancke, M. O., Marzin. D., Clavey, V., Sauzieres, J and Fruchart, J. C. Effects of fenofibrate, gemfibrozil and nicotinic acid on plasma lipoprotein levels in normal and hyperlipidemic mice. Atherosclerosis. 1988. 70: 107-114).
The test compounds were administered orally to Swiss albino mice at 0.3 to 30 mg/kg/day dose for 6 days. Control mice were treated with vehicle (0.25% Carboxymethylcellulose; dose 10 mL/kg). The test compounds were administered orally to Guinea pigs at 0.3 to 30 mg/kg/day dose for 6 days. Control animals were treated with vehicle (0.25% Carboxymethylcellulose; dose 5 mL/kg).
The blood samples were collected in fed state 1 hour after drug administration on 0 and 6 day of treatment. The blood was collected from the retro-orbital sinus through heparinised capillary in EDTA containing tubes. After centrifugation, plasma sample was separation for triglyceride and total cholesterol (Wieland, O. Methods of Enzymatic analysis. Bergemeyer, H. O., Ed., 1963. 211-214; Trinder, P. Ann. Clin. Biochem. 1969. 6: 24-27). Measurement of plasma triglyceride, total cholesterol and HDL were done using commercial kits (Dr. Reddy's Diagnostic Division, Hyderabad, India).
as §1

[3] = biological target: T1, hPPARα (Homo sapiens, UniProt Q07869); assay: Determination of hPPARα activity (GAL4 fusion luciferase reporter, HEK-293); format: cell-based; settings: 50 μM compound; HEK-293 cells, GAL4-hPPARα LBD reporter
T1 construct: expressed in transfected cells; host or cells: HEK-293
T1 sequence (Q07869 239-466 limits assumed): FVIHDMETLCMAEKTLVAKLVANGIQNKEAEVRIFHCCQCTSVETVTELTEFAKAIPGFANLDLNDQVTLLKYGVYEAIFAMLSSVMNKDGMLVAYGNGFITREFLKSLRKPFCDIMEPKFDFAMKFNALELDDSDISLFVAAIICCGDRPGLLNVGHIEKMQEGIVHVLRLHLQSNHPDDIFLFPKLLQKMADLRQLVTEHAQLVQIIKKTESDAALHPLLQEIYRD
Method: (§2) Ligand binding domain of hPPARα was fused to DNA binding domain of Yeast transcription factor GAL4 in eucaryotic expression vector. Using superfect (Qiagen, Germany) as transfecting reagent HEK-293 cells were transfected with this plasmid and a reporter plasmid harboring the luciferase gene driven by a GAL4 specific promoter. Compound was added at different concentrations after 42 hrs of transfection and incubated overnight.

[4] = biological target: T2, hPPARγ1 (Homo sapiens, UniProt P37231); assay: Determination of hPPARγ activity (GAL4 fusion luciferase reporter, HEK-293); format: cell-based; settings: 1 μM compound; HEK-293 cells, GAL4-hPPARγ1 LBD reporter
T2 construct: expressed in transfected cells; host or cells: HEK-293
T2 sequence (P37231 238-503 limits assumed): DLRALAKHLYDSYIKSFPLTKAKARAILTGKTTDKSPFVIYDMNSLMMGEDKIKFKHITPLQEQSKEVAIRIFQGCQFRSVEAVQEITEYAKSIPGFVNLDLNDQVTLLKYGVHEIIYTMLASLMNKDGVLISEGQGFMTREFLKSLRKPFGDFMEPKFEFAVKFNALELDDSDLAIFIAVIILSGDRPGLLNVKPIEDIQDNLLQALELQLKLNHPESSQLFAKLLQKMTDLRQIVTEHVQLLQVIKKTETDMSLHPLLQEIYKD
Method: as §2, with “hPPARγ1” for “hPPARα”, “lipofectamine (Gibco BRL, USA)” for “superfect (Qiagen, Germany)”, “1 μM concentration” for “different concentrations”, “48” for “42”

[5] = 1 mg/kg oral gavage daily for 6 days
[6] = 3 mg/kg oral gavage daily for 6 days
[7] = 10 mg/kg oral gavage daily for 6 days

Row | Compound | Reduction in Blood Glucose Level (%) [1, 5] | Triglyceride Lowering (%) [1, 5] | Triglyceride Lowering (%) [2] | PPARα (fold activation, luciferase activity) [3] | PPARγ (fold activation, luciferase activity) [4] | also measured
1 | CCOC(Cc1ccc(OCCN2c3ccccc3Oc3ccccc32)cc1)C(=O)O.N=C(N)NCCC[C@H](N)C(=O)O (single isomer, unassigned; (-)) [Example 28, (−) 3-[4-[2-(Phenoxazin-10-yl)ethoxy]phenyl]-2-ethoxypropanoic acid, arginine salt] | 40% | 40% | 22% | – | – | –
2 | CC(Cc1ccc(OCCN2c3ccccc3Oc3ccccc32)cc1)(Oc1ccccc1)C(=O)[O-].[Na+] (racemic) [Example 30, (±)3-[4-[2-(Phenoxazin-10-yl)ethoxy]phenyl]-2-phenoxy-2-methylpropanoic acid, sodium salt] | 44% | 05% | 58% | 9.3 Fold | 13.9 Fold | –
3 | (−) 3-[4-[2-(Phenoxazin-10-yl)ethoxy]phenyl]-2-ethoxypropanoic acid, magnesium salt [Example 25] | – | – | 6% | – | – | –
4 | CCOC(Cc1ccc2oc(CN3c4ccccc4Sc4ccccc43)cc2c1)C(=O)[O-].[Na+] (racemic) [Example 14, (±) 3-[2-(Phenothiazin-10-yl)methylbenzofuran-5-yl]-2-ethoxypropanoic acid, sodium salt] | – | – | – | – | – | Reduction in Blood Glucose Level (%) [1, 6]: 52%; Triglyceride Lowering (%) [1, 6]: 61%
5 | CCOC(Cc1ccc(OCCN2c3ccccc3Sc3ccccc32)cc1)C(=O)O (racemic) [Example 11, (±) 3-[4-[2-(Phenothiazin-10-yl)ethoxy]phenyl]-2-ethoxypropanoic acid] | – | – | – | 6.42 Fold | 5.20 Fold | Reduction in Blood Glucose Level (%) [1, 7]: 66%; Triglyceride Lowering (%) [1, 7]: 50%
